The text below walks through data of PubChem BioAssay (NCI).

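Cells were grown in 96-well plates and exposed to each compound for 48 hours at five concentrations; endpoints were interpolated linearly between bracketing concentrations, or set to the highest concentration if not reached. Abbreviation: GI50, concentration required for 50% inhibition of growth. TGI is the concentration that stops growth completely.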

What all share (experiment): growth of human tumour cells (NCI), 48 h
The subject of assay [1] is T-47D breast.
Assay [2] has as its system SK-OV-3 ovarian.
The test system of assay [3] is RPMI-8226 leukemia.
Assay [4] has as its system MDA-MB-435.
The test system of assay [5] is SNB-19 CNS.
In assay [6] the test system is HS 578T breast.
In assay [7] the test system is KM12 colon.

Take `CC(CN1CCN(CCOCCO)CC1)CN1c2ccccc2Sc2ccc(Cl)cc21` (stereo not given): the GI50 is 6.22 µM in assay [1]; 8.87 µM in assay [2]; 2.19 µM in assay [3]; 2.06 µM in assay [4]; 8.14 µM in assay [5]; 3.44 µM in assay [6]. In assay [7], the GI50 is 2.78 µM. For the same compound, the TGI came to 22.6 µM in assay [1]; 21.8 µM in assay [2]; 5.54 µM in assay [3]; 4.96 µM in assay [4]; 21.8 µM in assay [5]; 20.1 µM in assay [6]. In assay [7], this compound gave a TGI of 8.21 µM.
Take `Nc1ncnc2[nH]ncc12`: the GI50 in assay [1] was 0.265 µM; in assay [2] it was 0.315 µM; in assay [3], 0.378 µM; in assay [4] it was 0.58 µM; in assay [5], 13.8 µM; in assay [6] it was 7.32 µM. Besides, the GI50 in assay [7] is 1.26 µM. For the same compound, the TGI in assay [1] was 4.52 µM; in assay [2], 4.71 µM; in assay [3], 14.3 µM; in assay [4], above 56 µM; in assay [5], above 100 µM; in assay [6], above 100 µM. The same compound displayed a TGI in assay [7] of 18.3 µM.
For the compound `CC(C)(C)c1n[nH]c(=S)n(/N=C/c2ccc(F)c(Oc3ccccc3)c2)c1=O`, the GI50 is 55.7 µM in assay [1]; 38.2 µM in assay [2]; 32.5 µM in assay [3]; 38 µM in assay [4]; 40.9 µM in assay [5]; 31.4 µM in assay [6]. Moreover, the GI50 in assay [7] is 35.9 µM. In addition, the TGI in assay [1] is above 100 µM; in assay [2], above 100 µM; in assay [3], above 100 µM; in assay [4], above 100 µM; in assay [5], above 100 µM; in assay [6], 85.8 µM. In assay [7], this compound gave a TGI above 100 µM.
For the compound `C[C@]12CC[C@H]3[C@@H](CCC4=CC(=O)CC[C@@H]43)[C@@H]1CC[C@@H]2OC(=O)CCc1ccccc1`, the GI50 in assay [1] was 21.8 µM; in assay [2] it was 44.1 µM; in assay [3] it was 14.6 µM; in assay [4], 24.5 µM; in assay [5], 18.4 µM; in assay [6] it was 4 µM. Moreover, the GI50 in assay [7] was 19.8 µM. Moreover, the TGI in assay [1] is 66.6 µM; in assay [2] it was above 100 µM; in assay [3] it was 47 µM; in assay [4] it was above 80.2 µM; in assay [5], 37.5 µM; in assay [6], 21.8 µM. In assay [7], this compound yielded a TGI of 43 µM.
Take `COc1ccc(-c2n[nH]nc2-c2cc(OC)c3c(c2OC)OCO3)cc1`: the GI50 in assay [1] was 1.73 µM; in assay [2] it was 1.27 µM; in assay [3] it was 0.751 µM; in assay [4], 0.227 µM; in assay [5] it was 3.82 µM; in assay [6] it was 0.958 µM. Also, in assay [7], the GI50 is 0.426 µM. For the same compound, the TGI in assay [1] was above 100 µM; in assay [2], 9.3 µM; in assay [3], 37.7 µM; in assay [4], 0.761 µM; in assay [5], above 100 µM; in assay [6] it was 15 µM. Moreover, the TGI in assay [7] came out at 44.7 µM.
Regarding `COc1ccc(-c2cc(-c3ccccc3)nc(SCCCC(=O)NO)n2)cc1`, the GI50 was 0.804 µM in assay [1]; 1.74 µM in assay [2]; 0.454 µM in assay [3]; 0.995 µM in assay [4]; 2.19 µM in assay [5]; 1.66 µM in assay [6]. The GI50 in assay [7] was 1.72 µM. Besides, the TGI is 15.1 µM in assay [1]; 5.54 µM in assay [2]; above 22.9 µM in assay [3]; 3.11 µM in assay [4]; 9.27 µM in assay [5]; 9.27 µM in assay [6]. Besides, the TGI in assay [7] stood at 5.29 µM.
For `CCCCCCCCCCCCCCCCCC(=O)OCC(COC1OC(COP(=O)(O)O)C(O)C(O)C1O)OC(=O)CCCCCCCCCCCCCCCCC` (stereo not given), the TGI in assay [1] stood at 28.9 µM; in assay [2] it was 15.4 µM; in assay [3], 23.1 µM; in assay [4], 17.1 µM; in assay [5], 14.8 µM; in assay [6], 17.4 µM. The compound further came in with a TGI in assay [7] of 13 µM.
Turning to `CNC(=O)OCc1c(COC(=O)NC)c(C)n(-c2ccc(Br)cc2)c1C`, the TGI in assay [1] stood at 54.9 µM; in assay [2], 34.2 µM; in assay [3], 31.6 µM; in assay [4], 34 µM; in assay [5], 44.3 µM; in assay [6], 33.5 µM. The same compound showed a TGI in assay [7] of 30.8 µM.
On to `COC(=O)C(Cc1ccccc1)NC(=O)NC(=O)NC(=O)CI` (stereo not given), for which the GI50 in assay [1] was 2.71 µM; in assay [2], 15.8 µM; in assay [3], 2.69 µM; in assay [4], 3.38 µM; in assay [5] it was 17.6 µM; in assay [6], 34.3 µM. Besides, in assay [7], the GI50 was 15.8 µM. The TGI is 8.5 µM in assay [1]; 29.4 µM in assay [2]; 7.71 µM in assay [3]; 13.8 µM in assay [4]; 36.4 µM in assay [5]; above 100 µM in assay [6]. The compound further had a TGI in assay [7] of 32.6 µM.
In the case of `CC1=C(CCC(C)N(C)Cc2ccc(OCCCN3CCCC3)cc2)C(C)(C)CCC1` (stereo not given), the GI50 was 1.72 µM in assay [1]; 11.4 µM in assay [2]; 2.9 µM in assay [3]; 1.43 µM in assay [4]; 3.61 µM in assay [5]; 2.53 µM in assay [6]. In addition, in assay [7], the GI50 is 4.6 µM. The TGI in assay [1] is 4.97 µM; in assay [2], 23.8 µM; in assay [3], 8.65 µM; in assay [4], 2.85 µM; in assay [5], 12 µM; in assay [6], 9.73 µM. In assay [7], this compound had a TGI of 17.7 µM.
Consider `CCN=C1C=CC(=C(c2ccc(N)cc2)c2ccc(N(CC)CC)c(C)c2)C=C1`, for which the GI50 in assay [1] was 0.222 µM; in assay [2], 0.255 µM; in assay [3], 0.149 µM; in assay [4], 0.286 µM; in assay [5] it was 0.225 µM; in assay [6] it was 0.278 µM. For the same compound, the GI50 in assay [7] is 0.296 µM. Besides, the TGI in assay [1] was 1.34 µM; in assay [2], 0.703 µM; in assay [3], 0.882 µM; in assay [4], 0.884 µM; in assay [5], 1.62 µM; in assay [6], 5.1 µM. The compound also displayed a TGI in assay [7] of 1.09 µM.
